# Activity calls are given as the source filed them. The calls are words filed in the database; no cut-off is given here.
# Experiments:
# [1] = target: T1, Peroxisome proliferator-activated receptor alpha (Homo sapiens) (UniProt Q07869); assay: Transactivation of GAL4-tagged human PPARalpha LBD expressed in human HepG2 cells at 100 nM to 100 uM incubated for 20 to 22 hrs by luciferase reporter gene assay relative to clofibric acid; assay type: cell-based
# T1 sequence (whole entry): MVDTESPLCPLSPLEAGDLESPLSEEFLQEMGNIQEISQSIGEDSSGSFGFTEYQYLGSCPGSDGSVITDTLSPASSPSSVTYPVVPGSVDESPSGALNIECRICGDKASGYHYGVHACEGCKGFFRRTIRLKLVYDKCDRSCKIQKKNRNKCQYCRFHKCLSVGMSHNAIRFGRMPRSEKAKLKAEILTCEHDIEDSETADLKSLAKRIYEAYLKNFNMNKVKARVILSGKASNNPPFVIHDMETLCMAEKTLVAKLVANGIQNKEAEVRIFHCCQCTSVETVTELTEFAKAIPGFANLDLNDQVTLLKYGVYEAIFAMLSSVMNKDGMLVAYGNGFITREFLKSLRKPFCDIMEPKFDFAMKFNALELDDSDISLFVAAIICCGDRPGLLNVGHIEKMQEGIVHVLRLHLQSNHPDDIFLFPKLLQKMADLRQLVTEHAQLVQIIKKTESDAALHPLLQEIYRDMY
# [2] = target: T2, Peroxisome proliferator-activated receptor gamma (Homo sapiens) (UniProt P37231); assay: Transactivation of GAL4-tagged human PPARgamma LBD expressed in human HepG2 cells at 100 nM to 100 uM incubated for 20 to 22 hrs by luciferase reporter gene assay relative to rosiglitazone; assay type: cell-based
# T2 sequence (whole entry): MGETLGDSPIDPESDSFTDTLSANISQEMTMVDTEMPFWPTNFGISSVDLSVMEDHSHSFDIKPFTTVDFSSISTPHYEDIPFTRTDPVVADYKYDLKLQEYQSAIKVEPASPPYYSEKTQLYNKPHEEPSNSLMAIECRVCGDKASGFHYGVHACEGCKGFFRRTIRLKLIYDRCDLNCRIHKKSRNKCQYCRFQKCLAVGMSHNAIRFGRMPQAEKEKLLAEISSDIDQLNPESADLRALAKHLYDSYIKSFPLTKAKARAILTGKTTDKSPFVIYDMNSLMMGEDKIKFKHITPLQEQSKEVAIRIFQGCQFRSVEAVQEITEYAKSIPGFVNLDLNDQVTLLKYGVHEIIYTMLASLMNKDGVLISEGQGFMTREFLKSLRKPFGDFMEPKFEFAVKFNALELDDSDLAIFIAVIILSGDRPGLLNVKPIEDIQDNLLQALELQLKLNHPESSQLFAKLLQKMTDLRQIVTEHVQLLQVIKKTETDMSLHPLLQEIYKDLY
# [3] = target: T1, Peroxisome proliferator-activated receptor alpha (Homo sapiens); assay: Potency index, ratio of EC50 for GL479 to EC50 for test compound for transactivation of GAL4-tagged human PPARalpha LBD expressed in human HepG2 cells incubated for 20 to 22 hrs by luciferase reporter gene assay; assay type: cell-based
# [4] = target: T3, Peroxisome proliferator-activated receptor delta (Homo sapiens) (UniProt Q03181); assay: Transactivation of GAL4-tagged human PPARdelta LBD expressed in human HepG2 cells at 100 nM to 100 uM incubated for 20 to 22 hrs by luciferase reporter gene assay relative to L165,041; assay type: cell-based
# T3 sequence (whole entry): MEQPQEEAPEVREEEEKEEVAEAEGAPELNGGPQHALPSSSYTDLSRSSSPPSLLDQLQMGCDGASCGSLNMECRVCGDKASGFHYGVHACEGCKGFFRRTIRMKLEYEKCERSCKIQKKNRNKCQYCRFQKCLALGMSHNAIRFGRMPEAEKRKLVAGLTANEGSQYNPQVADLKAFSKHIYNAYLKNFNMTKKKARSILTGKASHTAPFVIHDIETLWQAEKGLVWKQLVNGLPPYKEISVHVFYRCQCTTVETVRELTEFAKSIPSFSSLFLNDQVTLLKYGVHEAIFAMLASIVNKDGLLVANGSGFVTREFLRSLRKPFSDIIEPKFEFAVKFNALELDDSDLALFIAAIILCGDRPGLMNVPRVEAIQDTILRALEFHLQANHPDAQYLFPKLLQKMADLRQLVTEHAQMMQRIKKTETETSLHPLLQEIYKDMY
# [5] = target: T4, Peroxisome proliferator-activated receptor alpha (Homo sapiens, UniProt Q07869); assay: Transactivation of GAL4-tagged human PPARalpha LBD expressed in human HepG2 cells at 100 nM to 100 uM incubated for 20 to 22 hrs by luciferase reporter gene assay; assay type: cell-based
# T4 sequence (Q07869 whole entry): T1 sequence (whole entry)
# [6] = target: T5, Peroxisome proliferator-activated receptor delta (Homo sapiens, UniProt Q03181); assay: Transactivation of GAL4-tagged human PPARdelta LBD expressed in human HepG2 cells at 100 nM to 100 uM incubated for 20 to 22 hrs by luciferase reporter gene assay; assay type: cell-based
# T5 sequence (Q03181 whole entry): T3 sequence (whole entry)
# [7] = tested on: Cortex; assay: Ex vivo antiinflammatory activity in Sprague-Dawley rat cortex assessed as inhibition of LPS-induced PGE2 production at 1 uM incubated for 4 hrs followed by LPS addition by radioimmunoassay; assay type: functional, tissue-based
# [8] = tested on: Liver; assay: Ex vivo antiinflammatory activity in Sprague-Dawley rat liver assessed as inhibition of LPS-induced PGE2 production at 1 uM incubated for 4 hrs followed by LPS addition by radioimmunoassay; assay type: functional, tissue-based
# [9] = tested on: Cortex; assay: Ex vivo antiinflammatory activity in Sprague-Dawley rat cortex assessed as inhibition of LPS-induced PGE2 production at 0.1 to 10 uM incubated for 4 hrs followed by LPS addition by radioimmunoassay; assay type: functional, tissue-based
# [10] = tested on: Liver; assay: Ex vivo antiinflammatory activity in Sprague-Dawley rat liver assessed as inhibition of LPS-induced PGE2 production at 0.1 to 10 uM incubated for 4 hrs followed by LPS addition by radioimmunoassay; assay type: functional, tissue-based
# [11] = target: T6, Peroxisome proliferator-activated receptor gamma (Homo sapiens, UniProt P37231); assay: Transactivation of GAL4-tagged human PPARgamma LBD expressed in human HepG2 cells at 100 nM to 100 uM incubated for 20 to 22 hrs by luciferase reporter gene assay; assay type: cell-based
# T6 sequence (P37231 whole entry): T2 sequence (whole entry)
# [12] = target: T1, Peroxisome proliferator-activated receptor alpha (Homo sapiens); assay: Agonist activity at PPARalpha in human HepG2 cells assessed as increase in CPT1A RNA expression at 100 uM incubated for 48 hrs by qRT-PCR analysis relative to control; assay type: cell-based
# [13] = target: T3, Peroxisome proliferator-activated receptor delta (Homo sapiens); assay: Agonist activity at PPARdelta in human HepG2 cells assessed as increase in PDK4 RNA expression at 100 uM incubated for 48 hrs by qRT-PCR analysis relative to control; assay type: cell-based
# [14] = target: T2, Peroxisome proliferator-activated receptor gamma (Homo sapiens); assay: Agonist activity at PPARgamma in human HepG2 cells assessed as increase in GLUT1 RNA expression at 100 uM incubated for 48 hrs by qRT-PCR analysis relative to control; assay type: cell-based
# [15] = target: T3, Peroxisome proliferator-activated receptor delta (Homo sapiens); assay: Agonist activity at PPARdelta in human HepG2 cells assessed as increase in PDK4 RNA expression at 2 uM incubated for 48 hrs by qRT-PCR analysis relative to control; assay type: cell-based
Compound,Emax [1],Emax [2],Emax [4],EC50 [5],EC50 [6],also measured
CC(C)(Oc1ccc(CCOc2ccc(/N=N/c3ccc(Br)cc3)cc2)cc1)C(=O)O,71%,12%,29%,810 nM,3900 nM,Ratio EC50 [3]: 3
Cc1cccc(Nc2cc(Cl)nc(SCC(=O)O)n2)c1C,–,–,–,–,–,Activity [7]: Active; Activity [8]: Active
CC(C)(Oc1ccc(CCOc2ccc(/N=N/c3ccc([N+](=O)[O-])cc3)cc2)cc1)C(=O)O,11%,14%,21%,–,4100 nM,–
CCc1ccc(CCOc2ccc(CC3SC(=O)NC3=O)cc2)nc1 (stereo not drawn),–,–,–,–,–,Activity [7]: Active; Activity [8]: Active
CC(C)(Oc1ccc(OCCc2ccc(/N=N/c3ccccc3)cc2)cc1)C(=O)O,69%,24%,35%,250 nM,2800 nM,Activity [9]: Active; Activity [10]: Active; EC50 [11]: 6 µM; Activity [12]: Active; Activity [13]: Active; Activity [14]: Active
CC(C)(Oc1ccc(OCCc2ccc(/N=N/c3ccc(Cl)cc3)cc2)cc1)C(=O)O,52%,10%,41%,510 nM,1200 nM,–
CC(C)(Oc1ccc(OCCc2ccc(/N=N/c3ccc([N+](=O)[O-])cc3)cc2)cc1)C(=O)O,19%,10%,28%,–,2300 nM,–

# The next lines start with results.
Emax [1],Emax [2],Emax [4],EC50 [5],EC50 [6],Compound,also measured
25%,12%,20%,2600 nM,6500 nM,CC(C)(Oc1ccc(CCOc2ccc(/N=N/c3ccc(C#N)cc3)cc2)cc1)C(=O)O,–
60%,12%,23%,380 nM,3100 nM,CC(C)(Oc1ccc(CCOc2ccc(/N=N/c3ccc(Cl)cc3)cc2)cc1)C(=O)O,Ratio EC50 [3]: 5
61%,12%,50%,1400 nM,2800 nM,CC(C)(Oc1ccc(OCCc2ccc(/N=N/c3ccc(C#N)cc3)cc2)cc1)C(=O)O,–
35%,8%,29%,1900 nM,1100 nM,CC(C)(Oc1ccc(OCCc2ccc(/N=N/c3ccc(Br)cc3)cc2)cc1)C(=O)O,–
56%,13%,39%,2100 nM,6400 nM,CC(C)(Oc1ccc(CCOc2ccc(/N=N/c3ccccc3)cc2)cc1)C(=O)O,–
35%,8%,24%,2300 nM,1800 nM,CC(C)(Oc1ccc(CCOc2ccc(/N=N/c3ccc(C(F)(F)F)cc3)cc2)cc1)C(=O)O,–
32%,10%,23%,2400 nM,1400 nM,COc1ccc(/N=N/c2ccc(OCCc3ccc(OC(C)(C)C(=O)O)cc3)cc2)cc1,–
–,–,–,–,210 nM,CCCc1c(OCCCOc2ccc(OCC(=O)O)cc2)ccc(C(C)=O)c1O,Activity [7]: inactive; Activity [8]: inactive; Activity [15]: Active
37%,9%,12%,2200 nM,–,CC(C)(Oc1ccc(OCCc2ccc(/N=N/c3ccc(C(F)(F)F)cc3)cc2)cc1)C(=O)O,–

# — ChEMBL document CHEMBL4433217, “Novel Phenyldiazenyl Fibrate Analogues as PPAR α/γ/δ Pan-Agonists for the Amelioration of Metabolic Syndrome” (ACS Med Chem Lett, 2019)
